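Tested at 5 concentrations; 48 h exposure; 96-well plates; endpoints linearly interpolated, else capped at highest concentration. GI50 is the concentration that inhibits growth by half.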 Activity calls are given as the source filed them. Cut-off read from the data, not from the text of the source: active = GI50 up to about 1.1 µM and inactive = higher.
What was measured:
Test in all cases: NCI-60 cell line screen, 48 h
[1] = system: A498
[2] = system: ACHN
[3] = system: EKVX
[4] = system: HCT-116
[5] = system: HCT-15
[6] = system: IGROV-1
[7] = system: LOX IMVI
[8] = system: MOLT-4
[9] = system: OVCAR-4
[10] = system: OVCAR-5
[11] = system: OVCAR-8
[12] = system: SF-268
[13] = system: SK-MEL-5
[14] = system: SK-OV-3
[15] = system: SN12C
[16] = system: SNB-19
[17] = system: SNB-75
[18] = system: TK-10
[19] = system: UACC-257
[20] = system: UO-31

| Compound | GI50 [1] | GI50 [2] | GI50 [3] | GI50 [4] | GI50 [5] [µM] | GI50 [6] | GI50 [7] | GI50 [8] | GI50 [9] | GI50 [10] | GI50 [11] | GI50 [12] | GI50 [13] | GI50 [14] | GI50 [15] | GI50 [16] | GI50 [17] | GI50 [18] | GI50 [19] | GI50 [20] |
| --- | --- | --- | --- | --- | --- | --- | --- | --- | --- | --- | --- | --- | --- | --- | --- | --- | --- | --- | --- | --- |
| CCOP(=O)(OCC)/C(C#N)=C/c1c(C)[nH]c2ccccc12 | > 100 µM (inactive) | > 100 µM (inactive) | > 100 µM (inactive) | > 100 µM (inactive) | > 100 | > 100 µM (inactive) | > 100 µM (inactive) | > 100 µM (inactive) | > 100 µM (inactive) | > 100 µM (inactive) | > 100 µM (inactive) | > 100 µM (inactive) | > 100 µM (inactive) | > 100 µM (inactive) | > 100 µM (inactive) | > 100 µM (inactive) | > 100 µM (inactive) | > 100 µM (inactive) | > 100 µM (inactive) | 30.4 µM (inactive) |
| C#CC1(OC(C)=O)CCC2C3CC=C4C=C(OC(C)=O)CCC4(C)C3CCC21C (stereo not given) | 46.6 µM (inactive) | 26.7 µM (inactive) | 30.5 µM (inactive) | 16.2 µM (inactive) | 23.3 | 19.3 µM (inactive) | 22.7 µM (inactive) | 13.2 µM (inactive) | 19.4 µM (inactive) | 34.7 µM (inactive) | 19.1 µM (inactive) | 23.8 µM (inactive) | 18.3 µM (inactive) | 36.2 µM (inactive) | 19.5 µM (inactive) | 32.4 µM (inactive) | 28.1 µM (inactive) | 24.3 µM (inactive) | 17.4 µM (inactive) | 23.1 µM (inactive) |
| O=C(OCc1ccccc1)c1nc2ccccc2n1S(=O)(=O)c1ccccc1 | > 100 µM (inactive) | > 100 µM (inactive) | > 100 µM (inactive) | > 100 µM (inactive) | > 100 | > 100 µM (inactive) | > 100 µM (inactive) | > 100 µM (inactive) | > 100 µM (inactive) | > 100 µM (inactive) | > 100 µM (inactive) | > 100 µM (inactive) | 80.4 µM (inactive) | > 100 µM (inactive) | > 100 µM (inactive) | > 100 µM (inactive) | > 100 µM (inactive) | > 100 µM (inactive) | > 100 µM (inactive) | > 100 µM (inactive) |
| CN(C)C(=O)C(NCCO)c1ccccc1 (stereo not given) | > 100 µM (inactive) | > 100 µM (inactive) | > 100 µM (inactive) | 53.7 µM (inactive) | > 100 | 72.6 µM (inactive) | > 100 µM (inactive) | 22.4 µM (inactive) | > 100 µM (inactive) | > 100 µM (inactive) | > 100 µM (inactive) | > 100 µM (inactive) | 52.8 µM (inactive) | > 100 µM (inactive) | > 100 µM (inactive) | > 100 µM (inactive) | > 100 µM (inactive) | > 100 µM (inactive) | 48.3 µM (inactive) | > 100 µM (inactive) |
| CN(C)/C=N\c1cccc2c1NSN2 | > 100 µM (inactive) | > 100 µM (inactive) | > 100 µM (inactive) | > 100 µM (inactive) | > 100 | > 100 µM (inactive) | > 100 µM (inactive) | > 100 µM (inactive) | > 100 µM (inactive) | > 100 µM (inactive) | > 100 µM (inactive) | > 100 µM (inactive) | > 100 µM (inactive) | > 100 µM (inactive) | > 100 µM (inactive) | > 100 µM (inactive) | > 100 µM (inactive) | > 100 µM (inactive) | > 100 µM (inactive) | > 100 µM (inactive) |
| Cc1cc(C)c(S(=O)(=O)ONC(=O)OC(C)(C)C)c(C)c1 | > 100 µM (inactive) | > 100 µM (inactive) | > 100 µM (inactive) | > 100 µM (inactive) | > 100 | > 100 µM (inactive) | > 100 µM (inactive) | > 100 µM (inactive) | > 100 µM (inactive) | > 100 µM (inactive) | > 100 µM (inactive) | > 100 µM (inactive) | > 100 µM (inactive) | > 100 µM (inactive) | > 100 µM (inactive) | > 100 µM (inactive) | > 100 µM (inactive) | > 100 µM (inactive) | > 100 µM (inactive) | > 100 µM (inactive) |
| CCOC(=O)c1cccc(/N=N/c2nc[nH]c2/C=C/C(=O)OC)c1 | 22.6 µM (inactive) | 16.5 µM (inactive) | 26.5 µM (inactive) | 4.17 µM (inactive) | 5.13 | 7.53 µM (inactive) | 7.43 µM (inactive) | 3.01 µM (inactive) | 6.58 µM (inactive) | 76.6 µM (inactive) | 16.5 µM (inactive) | 8.79 µM (inactive) | 7.36 µM (inactive) | 44.8 µM (inactive) | 5.97 µM (inactive) | 30.5 µM (inactive) | 18.5 µM (inactive) | 28.4 µM (inactive) | 12.9 µM (inactive) | 8.15 µM (inactive) |
| COc1ccccc1N(CN1C(=O)CCC1C(=O)O)C(C)=O (stereo not given) | > 100 µM (inactive) | > 100 µM (inactive) | > 100 µM (inactive) | > 100 µM (inactive) | > 100 | 0.138 µM (active) | > 100 µM (inactive) | > 100 µM (inactive) | > 100 µM (inactive) | > 100 µM (inactive) | > 100 µM (inactive) | 53 µM (inactive) | > 100 µM (inactive) | > 100 µM (inactive) | > 100 µM (inactive) | > 100 µM (inactive) | > 100 µM (inactive) | > 100 µM (inactive) | > 100 µM (inactive) | > 100 µM (inactive) |
| COc1ccc2c(c1)CCN1CCc3ccccc3CC21 (stereo not given) | 30 µM (inactive) | 45 µM (inactive) | > 100 µM (inactive) | 20.4 µM (inactive) | 48.2 | 56.5 µM (inactive) | 24 µM (inactive) | 35 µM (inactive) | > 100 µM (inactive) | 30.3 µM (inactive) | 63.5 µM (inactive) | 24.8 µM (inactive) | 15.1 µM (inactive) | 64.6 µM (inactive) | 73.5 µM (inactive) | 32.9 µM (inactive) | 30.2 µM (inactive) | 35.7 µM (inactive) | 29.7 µM (inactive) | 11 µM (inactive) |
| Cc1nc2c(nc1C)C(=O)c1cc(O)ccc1C2=O | > 69.8 µM (inactive) | > 100 µM (inactive) | > 100 µM (inactive) | 77.6 µM (inactive) | 36.9 | 68.9 µM (inactive) | 53.1 µM (inactive) | > 66.7 µM (inactive) | > 85.5 µM (inactive) | > 100 µM (inactive) | 53.2 µM (inactive) | 74.3 µM (inactive) | 15.6 µM (inactive) | > 100 µM (inactive) | > 73.5 µM (inactive) | 99.1 µM (inactive) | > 100 µM (inactive) | > 100 µM (inactive) | > 54.6 µM (inactive) | > 100 µM (inactive) |
| COc1c2c3c4c(c(OC)c(=O)c5c(O)cc(OC)c(c6c(OC)cc(O)c(c1=O)c63)c54)C(C(C)O)C2C(C)O (stereo not given) | 0.918 µM (active) | 0.811 µM (active) | 0.944 µM (active) | 0.847 µM (active) | 1.2 | 0.853 µM (active) | 0.883 µM (active) | 0.505 µM (active) | 1.32 µM (inactive) | 1.28 µM (inactive) | 0.449 µM (active) | 1.07 µM (active) | 0.24 µM (active) | 1.31 µM (inactive) | 0.92 µM (active) | 0.83 µM (active) | 0.518 µM (active) | 1.72 µM (inactive) | 0.792 µM (active) | 0.39 µM (active) |
| COc1cccc(/C=C\c2ccc(O)cc2)c1 | 28.3 µM (inactive) | 3.64 µM (inactive) | 30.2 µM (inactive) | 22.7 µM (inactive) | 23.7 | 26.7 µM (inactive) | 14.9 µM (inactive) | 3.6 µM (inactive) | 23.7 µM (inactive) | 62.8 µM (inactive) | 12.3 µM (inactive) | 28.2 µM (inactive) | 17.6 µM (inactive) | 36.5 µM (inactive) | 22.9 µM (inactive) | 29.7 µM (inactive) | 24 µM (inactive) | 52.4 µM (inactive) | 26.7 µM (inactive) | 5.4 µM (inactive) |
| Fc1ccc(-c2sc(-c3cccs3)cc2Cc2cccs2)cc1 | > 100 µM (inactive) | > 100 µM (inactive) | > 100 µM (inactive) | > 100 µM (inactive) | > 100 | > 100 µM (inactive) | > 100 µM (inactive) | 31.1 µM (inactive) | > 100 µM (inactive) | > 100 µM (inactive) | > 100 µM (inactive) | > 100 µM (inactive) | > 100 µM (inactive) | > 100 µM (inactive) | > 100 µM (inactive) | > 100 µM (inactive) | > 100 µM (inactive) | > 100 µM (inactive) | > 100 µM (inactive) | > 100 µM (inactive) |
| O[C@H]1[C@H]2c3cc4c(cc3CN3CCC(=C[C@@H]1O)[C@H]23)OCO4 [LYCORINE] | 2.96 µM (inactive) | 0.849 µM (active) | 2.39 µM (inactive) | 1.26 µM (inactive) | 1.33 | 0.332 µM (active) | 0.971 µM (active) | 1.29 µM (inactive) | 1.34 µM (inactive) | 2.5 µM (inactive) | 1.53 µM (inactive) | 0.802 µM (active) | 1.42 µM (inactive) | 1.84 µM (inactive) | 1.7 µM (inactive) | 2.11 µM (inactive) | 3.13 µM (inactive) | 2.67 µM (inactive) | 0.65 µM (active) | 1.47 µM (inactive) |
